Test results published in patent US20230278995A1, “1,3,4-OXADIAZOLE DERIVATIVE COMPOUNDS AS HISTONE DEACETYLASE 6 INHIBITOR, AND THE PHARMACEUTICAL COMPOSITION COMPRISING THE SAME” (CHONG KUN DANG PHARMACEUTICAL CORP., priority 2020, published 2023).

Tests used:
human recombinant HDAC1 = target: T1, human recombinant HDAC1 (Homo sapiens, UniProt Q13547); test: HDAC enzyme activity inhibition assay (HDAC Fluorimetric Drug Discovery Kit), HDAC1; assay type: biochemical; conditions: human recombinant HDAC1, Fluor de Lys-SIRT1 substrate, 30° C. 60 minutes
T1 construct: purchased Enzo Life Sciences, Inc. BML-SE456
T1 sequence (Q13547 whole entry): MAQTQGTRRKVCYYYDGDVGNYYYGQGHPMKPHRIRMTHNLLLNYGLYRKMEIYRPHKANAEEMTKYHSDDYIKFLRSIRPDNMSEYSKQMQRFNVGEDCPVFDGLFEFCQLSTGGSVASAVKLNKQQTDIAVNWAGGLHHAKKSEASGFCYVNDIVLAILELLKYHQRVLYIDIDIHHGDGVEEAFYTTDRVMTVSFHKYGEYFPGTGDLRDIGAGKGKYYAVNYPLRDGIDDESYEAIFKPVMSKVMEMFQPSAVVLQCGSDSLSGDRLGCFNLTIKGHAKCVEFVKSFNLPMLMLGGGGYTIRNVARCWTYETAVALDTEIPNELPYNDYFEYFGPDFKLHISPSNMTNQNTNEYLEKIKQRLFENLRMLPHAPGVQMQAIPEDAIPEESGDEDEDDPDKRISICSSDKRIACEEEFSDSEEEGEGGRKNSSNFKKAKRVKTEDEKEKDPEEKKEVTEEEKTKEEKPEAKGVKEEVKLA
Experimental: (§1) For the HDAC1 enzyme activity test, human recombinant HDAC1 (BML-SE456) was used as an enzyme source and Fluor de Lys©-SIRT1 (BNL-K1177) was used as a substrate. After dispensing 5-fold diluted compounds into a 96-well plate, 0.3 μg of enzyme and 10 μM substrate were added to each well of the plate and allowed to react at 30° C. for 60 minutes. Next, Fluor de Lys© Developer II (BML-K1176) was added and reacted for 30 minutes to complete the reaction, and then the fluorescence values (Ex 360, Em 460) were measured using a multi-plate reader (Flexstation 3, Molecular Device). The HDAC6 enzymes were tested using human recombinant HDAC6 (382180) from Calbiochem Inc., according to the same protocol as the HDAC1 enzyme activity test method. With respect to the final result values, respective IC50 values were calculated using GraphPad Prism 4.0 program (Table 2).

human recombinant HDAC6 = target: T2, human recombinant HDAC6 (Homo sapiens, UniProt Q9UBN7); test: HDAC enzyme activity inhibition assay (HDAC Fluorimetric Drug Discovery Kit), HDAC6; assay type: biochemical; conditions: for HDAC6 selectivity (fold): HDAC1 vs HDAC6; for IC50: human recombinant HDAC6, same protocol as HDAC1
T2 construct: purchased Calbiochem Inc. 382180
T2 sequence (Q9UBN7 1-1215): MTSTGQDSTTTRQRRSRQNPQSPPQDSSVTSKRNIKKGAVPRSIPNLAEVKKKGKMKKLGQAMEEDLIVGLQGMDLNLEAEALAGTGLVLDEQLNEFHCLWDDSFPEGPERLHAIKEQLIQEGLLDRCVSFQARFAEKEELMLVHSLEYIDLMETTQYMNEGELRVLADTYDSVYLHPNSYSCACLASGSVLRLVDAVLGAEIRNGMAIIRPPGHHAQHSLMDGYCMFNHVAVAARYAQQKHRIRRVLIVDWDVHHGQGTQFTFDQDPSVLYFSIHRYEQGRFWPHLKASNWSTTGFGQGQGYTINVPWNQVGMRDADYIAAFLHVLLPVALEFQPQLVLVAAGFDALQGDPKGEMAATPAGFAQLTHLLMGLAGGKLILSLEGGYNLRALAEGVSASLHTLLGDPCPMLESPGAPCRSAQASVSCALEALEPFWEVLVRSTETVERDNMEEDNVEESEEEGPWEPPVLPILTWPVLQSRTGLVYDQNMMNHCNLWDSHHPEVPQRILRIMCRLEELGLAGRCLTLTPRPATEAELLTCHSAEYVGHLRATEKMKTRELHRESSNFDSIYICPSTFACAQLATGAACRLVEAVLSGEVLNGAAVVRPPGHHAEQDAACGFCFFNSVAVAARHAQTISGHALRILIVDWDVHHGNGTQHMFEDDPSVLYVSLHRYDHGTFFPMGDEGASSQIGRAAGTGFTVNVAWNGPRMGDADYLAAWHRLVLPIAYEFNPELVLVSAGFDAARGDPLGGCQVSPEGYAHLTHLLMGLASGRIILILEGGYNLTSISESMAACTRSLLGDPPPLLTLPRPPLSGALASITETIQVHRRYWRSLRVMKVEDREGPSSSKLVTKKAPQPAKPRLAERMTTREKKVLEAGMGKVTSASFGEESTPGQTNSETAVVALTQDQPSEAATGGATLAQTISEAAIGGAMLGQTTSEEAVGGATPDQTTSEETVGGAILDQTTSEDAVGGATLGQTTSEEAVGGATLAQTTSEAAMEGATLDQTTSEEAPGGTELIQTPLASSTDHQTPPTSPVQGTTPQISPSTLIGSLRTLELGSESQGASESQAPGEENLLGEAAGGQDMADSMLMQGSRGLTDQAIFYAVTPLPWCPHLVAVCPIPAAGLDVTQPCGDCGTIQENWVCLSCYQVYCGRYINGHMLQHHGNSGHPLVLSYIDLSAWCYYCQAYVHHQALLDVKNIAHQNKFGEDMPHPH
Experimental: as §1

Structure (SMILES)	IC50 (human recombinant HDAC1) [nM]	HDAC6 selectivity (fold) (human recombinant HDAC6)	IC50 (human recombinant HDAC6) [nM]
CCC(=O)N1CC(F)(C(=O)N(Cc2ccc(-c3nnc(C(F)F)o3)cn2)c2cccc(F)c2)C1 [Compound 3163, N-((5-(5-(difluoromethyl)-1,3,4-oxadiazol-2-yl)pyridin-2-yl)methyl)-3-fluoro-N-(3-fluorophenyl)-1-propionylazetidine-3-carboxamide]	> 50000	2,155 fold	23.2
CC(C)N1CC(F)(C(=O)N(Cc2ccc(-c3nnc(C(F)F)o3)cn2)c2ccccc2)C1 [Compound 2974, N-((5-(5-(difluoromethyl)-1,3,4-oxadiazol-2-yl)pyridin-2-yl)methyl)-3-fluoro-1-isopropyl-N-phenylazetidine-3-carboxamide]	> 50000	1,054 fold	47.4
O=C(N(Cc1ccc(-c2nnc(C(F)F)o2)cn1)c1ccccc1)C1(F)CN(C2CCOCC2)C1 [Compound 3000, N-((5-(5-(difluoromethyl)-1,3,4-oxadiazol-2-yl)pyridin-2-yl)methyl)-3-fluoro-N-phenyl-1-(tetrahydro-2H-pyran-4-yl)azetidine-3-carboxamide]	> 50000	1,157 fold	43.2
CC(C)CN1CC(N2CC(F)(C(=O)N(Cc3ccc(-c4nnc(C(F)F)o4)cn3)c3cccc(F)c3)C2)C1 [Compound 3223, N-((5-(5-(difluoromethyl)-1,3,4-oxadiazol-2-yl)pyridin-2-yl)methyl)-3-fluoro-N-(3-fluorophenyl)-1′-isobutyl-[1,3′-biazetidine]-3-carboxamide]	> 50000	1,424 fold	35.1
O=C(C1CC1)N1CC(F)(C(=O)N(Cc2ccc(-c3nnc(C(F)F)o3)cn2)c2cccc(F)c2)C1 [Compound 3217, 1-(cyclopropanecarbonyl)-N-((5-(5-(difluoromethyl)-1,3,4-oxadiazol-2-yl)pyridin-2-yl)methyl)-3-fluoro-N-(3-fluorophenyl)azetidine-3-carboxamide]	> 50000	1,440 fold	34.7
CCCN1CC(F)(C(=O)N(Cc2ccc(-c3nnc(C(F)F)o3)cn2)c2ccccc2)C1 [Compound 3002, N-((5-(5-(difluoromethyl)-1,3,4-oxadiazol-2-yl)pyridin-2-yl)methyl)-3-fluoro-N-phenyl-1-propylazetidine-3-carboxamide]	> 50000	943 fold	53
CN(C)CCCC(=O)N1CC(F)(C(=O)N(Cc2ccc(-c3nnc(C(F)F)o3)cn2)c2ccccc2)C1 [Compound 3007, N-((5-(5-(difluoromethyl)-1,3,4-oxadiazol-2-yl)pyridin-2-yl)methyl)-1-(4-(dimethylamino)butanoyl)-3-fluoro-N-phenylazetidine-3-carboxamide]	> 50000	1,945 fold	25.7
O=C(N(Cc1ccc(-c2nnc(C(F)F)o2)cn1)c1cccc(F)c1)C1(F)CN(C2COC2)C1 [Compound 3050, N-((5-(5-(difluoromethyl)-1,3,4-oxadiazol-2-yl)pyridin-2-yl)meth 1)-3-fluoro-N-(3-fluorophenyl)-1-(oxetan-3-yl)azetidine-3-carboxamide]	> 50000	683 fold	73.2
CCC(=O)N1CCC(F)(C(=O)N(Cc2ccc(-c3nnc(C(F)F)o3)cc2F)c2ccccc2)CC1 [Compound 3439, N-(4-(5-(difluoromethyl)-1,3,4-oxadiazol-2-yl)-2-fluorobenzyl)-4-fluoro-N-phenyl-1-propionylpiperidine-4-carboxamide]	> 50000	238 fold	210
CC(C)N1CCC(F)(C(=O)N(Cc2ccc(-c3nnc(C(F)F)o3)cc2F)c2ccccc2)CC1 [Compound 3437, N-(4-(5-(difluoromethyl)-1,3,4-oxadiazol-2-yl)-2-fluorobenzyl)-4-fluoro-1-isopropyl-N-phenylpiperidine-4-carboxamide]	> 50000	226 fold	221
O=C(N(Cc1ccc(-c2nnc(C(F)F)o2)cn1)c1cccc(F)c1)C1(F)CCN(C2CCC2)CC1 [Compound 2971, 1-cyclobutyl-N-((5-(5-(difluoromethyl)-1,3,4-oxadiazol-2-yl)pyridin-2-yl)methyl)-4-fluoro-N-(3-fluorophenyl)piperidine-4-carboxamide]	> 50000	740 fold	67.5

Now from value to compound:

IC50 (human recombinant HDAC1) [nM]	HDAC6 selectivity (fold) (human recombinant HDAC6)	IC50 (human recombinant HDAC6) [nM]	Structure (SMILES)
> 50000	741 fold	67.4	CC(C)CC(=O)N1CC(F)(C(=O)N(Cc2ccc(-c3nnc(C(F)F)o3)cn2)c2cccc(F)c2)C1 [Compound 3166, N-((5-(5-(difluoromethyl)-1,3,4-oxadiazol-2-yl)pyridin-2-yl)methyl)-3-fluoro-N-(3-fluorophenyl)-1-(3-methylbutanoyl)azetidine-3-carboxamide]
> 50000	1,497 fold	33.4	O=C(N(Cc1ccc(-c2nnc(C(F)F)o2)cn1)c1cccc(F)c1)C1(F)CN(C2CCN(C3CCCCC3)CC2)C1 [Compound 3409, 1-(1-cyclohexylpiperidin-4-yl)-N-((5-(5-(difluoromethyl)-1,3,4-oxadiazol-2-yl)pyridin-2-yl)methyl)-3-fluoro-N-(3-fluorophenyl)azetidine-3-carboxamide]
> 50000	875 fold	57.1	O=C(N(Cc1ccc(-c2nnc(C(F)F)o2)cn1)c1ccccc1)C1(F)CN(CC2CCOCC2)C1 [Compound 3216]
> 50000	57 fold	877	CC(C)(C)OC(=O)N1CC(F)(C(=O)N(Cc2ccc(-c3nnc(C(F)(F)F)o3)cn2)c2cccc(F)c2)C1 [Compound 6890, tert-butyl 3-fluoro-3-((3-fluorophenyl)((5-(5-(trifluoromethyl)-1,3,4-oxadiazol-2-yl)pyridin-2-yl)methyl)carbamoyl)azetidine-1-carboxylate]
> 50000	1,524 fold	32.8	CC(C)CN1CCC(N2CC(F)(C(=O)N(Cc3ccc(-c4nnc(C(F)F)o4)cn3)c3ccccc3)C2)CC1 [Compound 3114, N-((5-(5-(difluoromethyl)-1,3,4-oxadiazol-2-yl)pyridin-2-yl)methyl)-3-fluoro-1-(1-isobutylpiperidin-4-yl)-N-phenylazetidine-3-carboxamide]
> 50000	1,436 fold	34.8	CCCN1CC(F)(C(=O)N(Cc2ccc(-c3nnc(C(F)F)o3)cn2)c2cccc(F)c2)C1 [Compound 3091, N-((5-(5-(difluoromethyl)-1,3,4-oxadiazol-2-yl)pyridin-2-yl)methyl)-3-fluoro-N-(3-fluorophenyl)-1-propylazetidine-3-carboxamide]
44600	2,348 fold	19	CC(C)CN1CC(N2CCC(F)(C(=O)N(Cc3ccc(-c4nnc(C(F)F)o4)cn3)c3cccc(F)c3)CC2)C1 [Compound 3392, N-((5-(5-(difluoromethyl)-1,3,4-oxadiazol-2-yl)pyridin-2-yl)methyl)-4-fluoro-N-(3-fluorophenyl)-1-(1-isobutylazetidine-3-yl)piperidine-4-carboxamide]
